Target: T1, plasminogen (Homo sapiens, UniProt P00747)
T1 construct: Glu-Pg, uPA, tPA, fibrinogen, and chromogenic substrate for Pn were purchased from Molecular Innovations (Novi, Mich.); purchased Molecular Innovations (Novi, Mich.)
Assay: LC-MS/MS identification of sites of MG adduction on plasminogen in vitro (Tables 1 and 12)
Details: 500 μM MG, 24 hr
Method: 10 μg Pg was incubated with MG (50-500 μM) in tris-buffered saline (TBS) for 24 hours at 37° C. Following modification, sample volumes were increased to 150 μL and placed in 5 kDa spin filters to reduce volume and remove excess MG from solution.
MG-modified (500 μM) and unmodified Pg control (same incubation conditions without MG) were added to 250 μL amount of rehydration buffer (6M urea, 2M thiourea, 2% CHAPS, 100 mM DTT, 0.5% 3-10 ampholytes) and 5 μL of 3-10 ampholytes (Bio-Rad). Sample rehydrated with a 13 cm 4-7 pH isoelectric focusing strip (GE Healthcare) overnight. Following rehydration, strips were placed in a Bio-Rad PROTEAN IEF Cell focusing instrument. Strips were first focused for 1 hour at 500 V, and then run at a maximum of 8,000V until the strips have reached a final total of 45,000 V/hrs at which point gels are held at 500V until removed. Focused strips were removed, reduced with DTT, cysteines carbamidomethylated with iodoacetamide, and run on a 4-20% gradient Criterion gel for 55 minutes at 200V. Gels were stained for stained according to manufacturer instructions with Imperial Blue Protein (ThermoScientific, Rockford, Ill.) and destained immediately with water. Gel bands were excised and trypsin digested.
Coomassie stained gel-bands were excised and washed in ddH2O for 15 min. H2O was removed and bands were incubated in 50/50 acetonitrile (ACN):ddH2O for 15 min. ACN:ddH2O was removed and bands were incubated with ACN for 5 min. ACN was removed and gels were incubated with 100 mM ammonium bicarbonate (AMBIC). An equal volume of ACN was added to make 1:1 solution and was incubated for 15 min. The ACN/AMBIC solution was removed and remaining gel bands were dried by speed-vacuum. 10 mM dithiothreitol (DTT) was added to each band and incubated at 56° C. for 45 min. DTT was removed and sample brought to room temperature (RT). Iodoacetamide (55 mM) was added to each sample and incubated at RT for 30 min in dark. Iodoacetamide was removed and 100 mM AMBIC was added and bands were incubated for 5 min. An equal volume of ACN was added to make a 1:1 solution and incubated for 15 min. The ACN/AMBIC solution was removed and bands were dried by speed-vacuum. Bands were digested with trypsin (400 ng/band) in 50 mM AMBIC and incubated on ice for 45 min. Tryptic solution was removed and 50 mM AMBIC was added to each band and incubated overnight at 37° C. to complete digestion. Digests were acidified using 10% trifluoroacetic acid (TFA). Supernatant was saved. Band was covered with TFA:ACN (0.1%:60%) and sonicated at 20° C. water bath for 30 min. Supernatant was combined with previous fraction. Sampled were speed vacuumed to a final volume of 10 μL prior to LC-MS/MS analysis on an LTQ Orbitrap Velos mass spectrometer as described below.
LC-MS/MS analysis of in-gel trypsin digested-proteins (Shevchenko et al., 1996) was carried out using a LTQ Orbitrap Velos mass spectrometer (Thermo Fisher Scientific, San Jose, Calif.) equipped with an Advion nanomate ESI source (Advion, Ithaca, N.Y.), following ZipTip (Millipore, Billerica, Mass.) C18 sample clean-up according to the manufacturer's instructions. Peptides were eluted from a C18 precolumn (100-μm id×2 cm, Thermo Fisher Scientific) onto an analytical column (75-μm ID×10 cm, C18, Thermo Fisher Scientific) using a 5-20% gradient of solvent B (acetonitrile, 0.1% formic acid) over 65 minutes, followed by a 20-35% gradient of solvent B over 25 minutes, all at a flow rate of 400 nl/min. Solvent A consisted of water and 0.1% formic acid. Data dependent scanning was performed by the Xcalibur v 2.1.0 software (Andon et al., 2002) using a survey mass scan at 60,000 resolution in the Orbitrap analyzer scanning m/z 350-1600, followed by collision-induced dissociation (CID) tandem mass spectrometry (MS/MS) of the fourteen most intense ions in the linear ion trap analyzer. […]

T1 sequence (P00747 20-810 limits assumed): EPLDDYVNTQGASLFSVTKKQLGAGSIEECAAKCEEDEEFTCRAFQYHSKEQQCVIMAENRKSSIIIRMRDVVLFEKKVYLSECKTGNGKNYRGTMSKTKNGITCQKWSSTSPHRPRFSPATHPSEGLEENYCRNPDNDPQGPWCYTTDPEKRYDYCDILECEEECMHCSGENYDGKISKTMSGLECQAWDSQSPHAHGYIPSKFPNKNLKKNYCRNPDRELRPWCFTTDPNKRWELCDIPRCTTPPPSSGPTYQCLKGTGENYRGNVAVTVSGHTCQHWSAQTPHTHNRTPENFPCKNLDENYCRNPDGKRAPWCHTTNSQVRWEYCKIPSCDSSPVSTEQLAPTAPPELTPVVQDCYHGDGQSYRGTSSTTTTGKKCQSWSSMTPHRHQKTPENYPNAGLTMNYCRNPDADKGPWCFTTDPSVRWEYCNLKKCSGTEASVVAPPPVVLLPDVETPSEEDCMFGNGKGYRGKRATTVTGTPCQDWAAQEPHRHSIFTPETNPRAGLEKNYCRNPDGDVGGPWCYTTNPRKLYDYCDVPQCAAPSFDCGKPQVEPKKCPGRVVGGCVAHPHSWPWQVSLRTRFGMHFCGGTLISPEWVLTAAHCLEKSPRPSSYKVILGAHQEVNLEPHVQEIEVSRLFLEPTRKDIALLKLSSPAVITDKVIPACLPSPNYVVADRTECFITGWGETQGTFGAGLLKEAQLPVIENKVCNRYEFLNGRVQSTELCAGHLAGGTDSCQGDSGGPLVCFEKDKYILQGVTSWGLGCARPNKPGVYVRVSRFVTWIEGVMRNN

In the case of `CC(=O)C=O` [MG, Methylglyoxal], the “Spectra Observed” value (site 312, MG-DH, RAPWC(+57)HTTNSQVR) is reported as 10, the “Spectra Observed” value (site 312, MG-HI, RAPWC(+57)HTTNSQVR) is reported as 8 and the “Spectra Observed” value (site 324, MG-DH, RAPWC(+57)HTTNSQVRWEYC(+57)K) is reported as 4. The “Spectra Observed” value (site 324, MG-HI, APWC(+57)HTTN SQVRWEYC(+57)K) was 3, the “Spectra Observed” value (site 324, MG-HI, RAPWC(+57)HTTNSQVRWEYC(+57)K) was 7 and the “Spectra Observed” value (site 389, MG-DH, C(+57)QSWSSMTPHRHQK) was 2. The “Spectra Observed” value (site 389, MG-DH, KC(+57)QSWSSMTPHRHQK) was 1, the “Spectra Observed” value (site 389, MG-HI, C(+57)QSWSSMTPHRHQK) was 4 and the “Spectra Observed” value (site 389, MG-HI, KC(+57)QSWSSMTPHRHQK) was 1. For the same compound, the “Spectra Observed” value (site 474, MG-DH, GKRATTVTGTPC(+57)QDWAAQEPHR) was 1, the “Spectra Observed” value (site 474, MG-DH, RATTVTGTPC(+57)QDWAAQEPHR) was 3 and the “Spectra Observed” value (site 474, MG-HI, GKRATTVTGTPC(+57)QDWAAQEPHR) was 4. For the same compound, the “Spectra Observed” value (site 474, MG-HI, RATTVTGTPC(+57)QDWAAQEPHR) was 3, the “Spectra Observed” value (site 493, MG-DH, ATTVTGTPC(+57)QDWAAQEPHRHSIFTPETNPR) was 4 and the “Spectra Observed” value (site 493, MG-DH, RATTVTGPC(+57)QDWAAQEPHRHSIFTPETNPR) was 3. For the same compound, the “Spectra Observed” value (site 493, MG-HI, ATTVTGTPC(+57)QDWAAQEPHRHSIFTPETNPR) was 6, the “Spectra Observed” value (site 493, MG-HI, RATTVTGPC(+57)QDWAAQEPHRHSIFTPETNPR) was 4 and the “Spectra Observed” value (site 504, MG-DH, HSIFTPETNPRAGLEK) was 9. For the same compound, the “Spectra Observed” value (site 504, MG-HI, HSIFTPETNPRAGLEK) was 16, the “Spectra Observed” value (site 530, MG-DH, NPDGDVGGPWC(+57)YTTNPRK) was 9 and the “Spectra Observed” value (site 530, MG-HI, NPDGDVGGPWC(+57)YTTNPRK) was 12. The “Spectra Observed” value (site 530, MG-HI, NYC(+57)RNPDGDVGGPWC(+57)YTTNPRK) was 3, the “Spectra Observed” value (site 561, MG-DH, C(+57)PGRVVGGC(+57)VAHPHSWPWQVSLR) was 5 and the “Spectra Observed” value (site 561, MG-DH, CPGRVVGGCVAHPHSWPWQVSLR) was 1. For the same compound, the “Spectra Observed” value (site 561, MG-DH, KC(+57)PGRVVGGC(+57)VAHPHSWPWQVSLR) was 10, the “Spectra Observed” value (site 561, MG-DH, KCPGRVVGGCVAHPHSWPWQVSLR) was 1 and the “Spectra Observed” value (site 561, MG-HI, C(+57)PGRVVGGC(+57)VAHPHSWPWQVSLR) was 5. For the same compound, the “Spectra Observed” value (site 561, MG-HI, KC(+57)PGRVVGGC(+57)VAHPHSWPWQVSLR) was 12, the “Spectra Observed” value (site 582, MG-DH, TRFGMHFC(+57)GGTLISPEWVLTAAHC(+57)LEK) was 1 and the “Spectra Observed” value (site 582, MG-HI, TRFGM(+16)HFC(+57)GGTLISPEWVLTAAHC(+57)LEK) was 1. The “Spectra Observed” value (site 582, MG-HI, TRFGMHFC(+57)GGTLISPEWVLTAAHC(+57)LEK) was 1, the “Spectra Observed” value (site 644, MG-HI, LFLEPTRK) was 2 and the “Spectra Observed” value (site 712, MG-DH, VC(+57)NRYEFLNGR) was 5. The “Spectra Observed” value (site 712, MG-HI, VC(+57)NRYEFLNGR) was 4, the “Spectra Observed” value (site 767, MG-DH, DKYILQGVTSWGLGC(+57)ARPNKPGVYVR) was 8 and the “Spectra Observed” value (site 767, MG-DH, YILQGVTSWGLGC(+57)ARPNKPGVYVR) was 6. The “Spectra Observed” value (site 767, MG-HI, DKYILQGVTSWGLGC(+57)ARPNKPGVYVR) was 11, the “Spectra Observed” value (site 767, MG-HI, YILQGVTSWGLGC(+57)ARPNKPGVYVR) was 6 and the “Spectra Observed” value (site 779, MG-DH, VSRFVTWIEGVM(+16)R) was 5. For the same compound, the “Spectra Observed” value (site 779, MG-DH, VSRFVTWIEGVMR) was 2, the “Spectra Observed” value (site 779, MG-HI, VSRFVTWIEGVM(+16)R) was 9 and the “Spectra Observed” value (site 779, MG-HI, VSRFVTWIEGVMR) was 4. For the same compound, the “Spectra Observed” value (site 789, MG-DH, FVTWIEGVM(+16)RNN) was 6, the “Spectra Observed” value (site 789, MG-DH, FVTWIEGVMRNN) was 13 and the “Spectra Observed” value (site 789, MG-HI, FVTWIEGVM(+16)RNN) was 10. For the same compound, the “Spectra Observed” value (site 789, MG-HI, FVTWIEGVMRNN) was 14, the “Spectra Observed” value (sites 115/117, MG-DH, MG-HI, WSSTSPHRPRFSPATHPSEGLEENYC(+57)R) was 2 and the “Spectra Observed” value (sites 115/117, MG-DH, WSSTSPHRPRFSPATHPSEGLEENYC(+57)R) was 1. The “Spectra Observed” value (sites 115/117, MG-HI, WSSTSPHRPRFSPATHPSEGLEENYC(+57)R) was 3, the “Spectra Observed” value (sites 220/223, MG-DH, NPDRELRPWC(+57)FTTDPNKR) was 3 and the “Spectra Observed” value (sites 220/223, MG-HI, MG-DH, NPDRELRPWC(+57)FTTDPNKR) was 9. The “Spectra Observed” value (sites 220/223, MG-HI, NPDRELRPWC(+57)FTTDPNKR) was 8, the “Spectra Observed” value (sites 312/324, MG-DH, MG-HI, RAPWC(+57)HTTNSQVRWEYC(+57)K) was 7 and the “Spectra Observed” value (sites 312/324, MG-DH, RAPWC(+57)HTTNSQVRWEYC(+57)K) was 3. The “Spectra Observed” value (sites 312/324, MG-HI, RAPWC(+57)HTTNSQVRWEYC(+57)K) was 2, the “Spectra Observed” value (sites 474/493, MG-DH, MG-HI, RATTVTGTPCQDWAAQEPHRHSIFTPETNPR) was 1 and the “Spectra Observed” value (sites 474/493, MG-HI, RATTVTGTPC(+57)QDWAAQEPHRHSIFTPETNPR) was 1. For the same compound, the “Spectra Observed” value (sites 489/504, MG-HI, MG-DH, ATTVTGTPC(+57)QDWAAQEPHRHSIFTPETNPRAGLEK) was 1, the “Spectra Observed” value (sites 779/789, MG-DH, VSRFVTWIEGVM(+16)RNN) was 1 and the “Spectra Observed” value (sites 779/789, MG-HI, MG-DH, VSRFVTWIEGVM(+16)RNN) was 3. The “Spectra Observed” value (sites 779/789, MG-HI, VSRFVTWIEGVM(+16)RNN) was 3.
